Laboratory results as given in patent US20250145635A1, “COMPOUND CONTAINING BIS(AZANYLYLIDENE) SULFONYL STRUCTURE AND USE THEREOF IN MEDICINE” (SCINNOHUB PHARMACEUTICAL CO., LTD., priority 2021, published 2025).

Columns and labels:
[1] = target: recombinant human PKR enzyme (Homo sapiens (Human), UniProt P30613); experiment: Pyruvate kinase (PKR) activity experiment; format: biochemical; conditions: activation of recombinant human PKR enzyme
Experimental: • 1). A recombinant human PKR enzyme solution was formulated at a concentration of 60 ng/well (a 20 μL reaction system), and 5 μL of the solution was added into each well of a black transparent bottom 384-well plate. • 2). Compound solutions were formulated at different concentrations, with the final concentrations of 1000/300/100 nM (containing 1% DMSO). Each 5 μL of the compound solution was added into the plate in item 3.1 and mixed well. The plate was incubated at room temperature for 10 min. • 3). A reaction system was formulated according to the instructions of a kit (as shown in the table below), and 10 μL of the reaction system was added into each well of the 384-well plate, and mixed uniformly with the solution in item 3.2.
• 4). The 384-well plate was placed on a microplate reader to detect the fluorescence value at 540/590 nm, where the value was read every 2 minutes and the detection was conducted continuously for 1 hour. • 5). The Slope value within the detection time was calculated, and the 0.1% DMSO well was used as a control well to calculate a compound activation rate.
[formula] • 6). Fitting dose-effect curve
(§1) With the log value of the compound concentration as the X axis and the percentage activation rate as the Y axis, a dose-effect curve was fitted with the log(agonist) vs. response-variable slope of the analysis software GraphPad Prism 5, and the AC50 value of the activity of each compound against PKR was obtained.

[2] = target: USP9X (Homo sapiens (Human), UniProt Q93008); experiment: USP9X enzyme activity experiment; format: biochemical; conditions: inhibition of USP9X enzyme, Ub-Rho 110 substrate
USP9X, sequence (Q93008 whole entry): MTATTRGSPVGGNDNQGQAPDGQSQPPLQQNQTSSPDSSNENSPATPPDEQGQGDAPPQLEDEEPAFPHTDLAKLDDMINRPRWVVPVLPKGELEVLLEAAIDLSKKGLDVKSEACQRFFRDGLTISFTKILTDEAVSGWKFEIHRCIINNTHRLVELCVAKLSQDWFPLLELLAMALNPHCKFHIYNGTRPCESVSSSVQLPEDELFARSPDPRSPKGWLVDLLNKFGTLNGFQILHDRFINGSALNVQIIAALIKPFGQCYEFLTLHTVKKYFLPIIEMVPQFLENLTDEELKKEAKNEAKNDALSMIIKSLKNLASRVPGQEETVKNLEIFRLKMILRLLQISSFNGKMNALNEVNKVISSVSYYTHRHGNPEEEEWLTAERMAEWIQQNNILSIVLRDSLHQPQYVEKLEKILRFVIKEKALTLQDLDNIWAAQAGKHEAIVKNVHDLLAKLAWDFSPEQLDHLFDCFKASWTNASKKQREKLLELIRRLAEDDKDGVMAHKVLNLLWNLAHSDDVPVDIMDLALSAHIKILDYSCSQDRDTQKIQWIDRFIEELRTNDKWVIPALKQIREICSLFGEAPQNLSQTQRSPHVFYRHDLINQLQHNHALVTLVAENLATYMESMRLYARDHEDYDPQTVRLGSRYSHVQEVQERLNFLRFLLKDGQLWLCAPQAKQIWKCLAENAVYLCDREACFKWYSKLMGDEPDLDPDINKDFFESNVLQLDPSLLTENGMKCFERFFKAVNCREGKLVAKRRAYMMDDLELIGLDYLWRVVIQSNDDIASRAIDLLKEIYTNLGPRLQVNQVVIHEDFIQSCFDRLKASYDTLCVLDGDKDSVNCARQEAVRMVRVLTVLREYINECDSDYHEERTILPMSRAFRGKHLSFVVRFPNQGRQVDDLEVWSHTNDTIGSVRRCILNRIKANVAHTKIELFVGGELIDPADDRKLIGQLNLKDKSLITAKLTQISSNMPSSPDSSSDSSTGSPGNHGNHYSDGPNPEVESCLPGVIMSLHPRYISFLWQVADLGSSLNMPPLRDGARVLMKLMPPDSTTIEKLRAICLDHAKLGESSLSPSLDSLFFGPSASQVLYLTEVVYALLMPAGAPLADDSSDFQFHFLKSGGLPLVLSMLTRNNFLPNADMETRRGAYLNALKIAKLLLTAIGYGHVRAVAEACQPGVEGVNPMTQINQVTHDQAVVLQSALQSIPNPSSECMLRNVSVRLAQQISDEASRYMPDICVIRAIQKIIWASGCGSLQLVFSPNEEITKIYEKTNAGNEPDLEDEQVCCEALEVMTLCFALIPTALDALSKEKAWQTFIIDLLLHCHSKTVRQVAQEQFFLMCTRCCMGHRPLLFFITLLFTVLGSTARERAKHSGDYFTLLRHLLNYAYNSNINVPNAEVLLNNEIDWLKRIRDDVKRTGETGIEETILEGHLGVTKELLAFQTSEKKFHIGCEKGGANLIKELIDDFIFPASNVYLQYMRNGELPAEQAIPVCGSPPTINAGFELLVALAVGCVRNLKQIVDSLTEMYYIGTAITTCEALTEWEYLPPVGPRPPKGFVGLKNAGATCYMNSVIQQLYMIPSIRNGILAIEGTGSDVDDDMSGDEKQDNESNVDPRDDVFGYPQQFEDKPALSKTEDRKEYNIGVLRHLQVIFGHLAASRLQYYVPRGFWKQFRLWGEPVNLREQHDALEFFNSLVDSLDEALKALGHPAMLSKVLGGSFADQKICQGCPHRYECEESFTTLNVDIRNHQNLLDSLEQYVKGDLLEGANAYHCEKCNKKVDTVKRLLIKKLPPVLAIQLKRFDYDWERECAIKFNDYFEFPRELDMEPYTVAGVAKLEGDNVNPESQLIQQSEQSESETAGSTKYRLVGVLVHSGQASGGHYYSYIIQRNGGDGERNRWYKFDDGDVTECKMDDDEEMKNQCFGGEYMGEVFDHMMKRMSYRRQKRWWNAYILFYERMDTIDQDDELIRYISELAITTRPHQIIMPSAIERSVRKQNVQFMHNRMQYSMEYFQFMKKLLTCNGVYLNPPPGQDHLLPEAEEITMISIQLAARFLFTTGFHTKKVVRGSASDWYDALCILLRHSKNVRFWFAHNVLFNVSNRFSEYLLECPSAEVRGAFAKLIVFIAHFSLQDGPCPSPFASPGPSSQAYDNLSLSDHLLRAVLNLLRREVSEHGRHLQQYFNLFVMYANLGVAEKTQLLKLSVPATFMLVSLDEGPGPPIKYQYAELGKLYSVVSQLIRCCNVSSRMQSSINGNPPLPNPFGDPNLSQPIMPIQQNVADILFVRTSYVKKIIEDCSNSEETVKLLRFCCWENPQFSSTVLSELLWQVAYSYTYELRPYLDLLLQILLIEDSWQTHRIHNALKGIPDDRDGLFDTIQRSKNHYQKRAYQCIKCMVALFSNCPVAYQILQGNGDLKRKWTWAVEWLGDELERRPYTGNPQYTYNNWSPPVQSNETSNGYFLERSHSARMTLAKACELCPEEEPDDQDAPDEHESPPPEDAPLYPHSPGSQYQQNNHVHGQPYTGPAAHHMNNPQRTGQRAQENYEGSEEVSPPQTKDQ
Experimental: • 1). A 1× analysis buffer was formulated, consisting of a modified Tris buffer (pH 7.5). • 2). Compound solutions of different concentrations were formulated with final concentrations of 3,000/1,000/300/100/30/10/3/1 nM (containing 1% DMSO), and added into a 384-well plate. • 3). A USP9X enzyme solution was formulated with the 1× analysis buffer. • 4). 10 μL of the USP9X enzyme solution was added into the 384-well plate, and incubated with the compounds at room temperature for 1 h. • 5). Rhodamine 110 Protein was added into the 1× analysis buffer to formulate a substrate working solution. • 6). 10 μL of the substrate solution was added into each reaction well, centrifuged for 30 s, and mixed uniformly for 30 s. • 7). The 384-well plate was placed on a microplate reader for detection, with an excitation wavelength of 480 nm and an emission wavelength of 540 nm. Test was conducted for 30 minutes and the data was collected. • 8. Fitting the dose-effect curve.
as §1, with “inhibition” for “activation”, “log(inhibitor)” for “log(agonist)”, “IC50” for “AC50”, “USP9X” for “PKR”

recombinant human PKR enzyme, sequence (P30613 whole entry): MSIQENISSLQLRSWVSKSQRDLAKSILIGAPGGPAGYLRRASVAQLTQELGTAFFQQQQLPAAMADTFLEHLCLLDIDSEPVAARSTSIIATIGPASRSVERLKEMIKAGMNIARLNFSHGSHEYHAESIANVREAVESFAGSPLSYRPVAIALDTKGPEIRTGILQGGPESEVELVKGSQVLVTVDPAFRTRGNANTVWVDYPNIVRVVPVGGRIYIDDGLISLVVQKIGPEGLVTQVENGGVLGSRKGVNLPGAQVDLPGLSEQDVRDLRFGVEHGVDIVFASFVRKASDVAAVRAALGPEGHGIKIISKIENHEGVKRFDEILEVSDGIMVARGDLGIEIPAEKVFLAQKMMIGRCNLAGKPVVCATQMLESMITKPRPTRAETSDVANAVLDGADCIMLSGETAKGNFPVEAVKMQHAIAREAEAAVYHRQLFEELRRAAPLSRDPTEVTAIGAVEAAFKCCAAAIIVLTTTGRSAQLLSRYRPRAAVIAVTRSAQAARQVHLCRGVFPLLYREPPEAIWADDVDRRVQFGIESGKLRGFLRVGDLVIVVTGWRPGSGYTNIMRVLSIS

Compound	AC50 [1]	IC50 [2]
O=C([C@H](CO)c1ccccc1)N1CC(=C2CN(S(=O)(=O)c3ccc4c(c3)OCCO4)C2)C1 [Compound 2, (S)-1-(1′-((2,3-dihydrobenzo[b][1,4]dioxin-6-yl)sulfonyl)-1′,4′-dihydro-2H,2′H-[3,3′-diazetidinylidene]-1(4H)-yl)-3-hydroxy-2-phenylpropan-1-one]	< 100 nM	< 100 nM
O=C([C@H](CO)c1ccccc1)N1CC(=C2CN(S(=O)(=O)c3ccc4ncsc4c3)C2)C1 [Compound 3, (S)-1-(1′-(benzo[d]thiazol-6-ylsulfonyl)-1′,4′-dihydro-2H,2′H-[3,3′-diazetidinylidene]-1(4H)-yl)-3-hydroxy-2-phenylpropan-1-one]	< 100 nM	300 to 1000 nM
COc1ccc(S(=O)(=O)N2CC(=C3CN(C(=O)[C@H](CO)c4ccccc4)C3)C2)cc1 [Compound 5, (S)-3-hydroxy-1-(1′-((4-methoxyphenyl)sulfonyl)-1′,4′-dihydro-2H,2′H-[3,3′-diazetidinylidene]-1(4H)-yl)-2-phenylpropan-1-one]	< 100 nM	< 100 nM
Cc1nc2ccc(S(=O)(=O)N3CC(=C4CN(C(=O)[C@H](CO)c5ccccc5)C4)C3)cc2s1 [Compound 35, (S)-3-hydroxy-1-(1′-((2-methylbenzo[d]thiazol-6-yl)sulfonyl)-1′,4′-dihydro-2H,2′H-[3,3′-diazetidinylidene]-1(4H)-yl)-2-phenylpropan-1-one]	< 100 nM	
O=C([C@H](CO)c1ccccc1)N1CC(=C2CN(S(=O)(=O)c3ccc(OC(F)F)cn3)C2)C1 [Compound 80, (S)-1-(1′-((5-(difluoromethoxy)pyridin-2-yl)sulfonyl)-1′,4′-dihydro-2H,2′H-[3,3′-diazetidinylidene]-1(4H)-yl)-3-hydroxy-2-phenylpropan-1-one]	< 100 nM	
O=C([C@@H](CO)c1ccc(F)c(Cl)c1)N1CC(=C2CN(S(=O)(=O)c3ccccn3)C2)C1 [Compound 76, (R)-2-(3-chloro-4-fluorophenyl)-3-hydroxy-1-(1′-(pyridin-2-ylsulfonyl)-1′,4′-dihydro-2H,2′H-[3,3′-diazetidinylidene]-1(4H)-yl)propan-1-one]	300 to 1000 nM	
O=C([C@H](CO)c1ccccc1)N1CC(=C2CN(S(=O)(=O)c3cnc4c(c3)OCCO4)C2)C1 [Compound 1, (S)-1-(1′-((2,3-dihydro-[1,4]dioxino[2,3-b]pyridin-7-yl)sulfonyl)-1′,4′-dihydro-2H,2′H-[3,3′-diazetidinylidene]-1(4H)-yl)-3-hydroxy-2-phenylpropan-1-one]	300 to 1000 nM	< 100 nM
O=C(C(CO)c1cccnc1)N1CC(=C2CN(S(=O)(=O)c3ccc4ncsc4c3)C2)C1 (centres unmarked) [Compound 48, 1-(1′-(benzo[d]thiazol-6-ylsulfonyl)-1′,4′-dihydro-2H,2′H-[3,3′-diazetidinylidene]-1(4H)-yl)-3-hydroxy-2-(pyridin-3-yl)propan-1-one]	101 to 300 nM	
O=C(C(CO)c1ccccc1)N1CC(=C2CN(S(=O)(=O)c3ccc(OC(F)F)cc3)C2)C1 (centres unmarked) [Compound 6, 1-(1′-((4-(difluoromethoxy)phenyl)sulfonyl)-1′,4′-dihydro-2H,2′H-[3,3′-diazetidinylidene]-1(4H)-yl)-3-hydroxy-2-phenylpropan-1-one]		101 to 300 nM
O=C([C@H](CO)c1ccccc1)N1CC(=C2CN(S(=O)(=O)c3cc(F)c4c(c3)OCCO4)C2)C1 [Compound 20, (S)-1-(1′-((8-fluoro-2,3-dihydrobenzo[b][1,4]dioxin-6-yl)sulfonyl)-1′,4′-dihydro-2H,2′H-[3,3′-diazetidinylidene]-1(4H)-yl)-3-hydroxy-2-phenylpropan-1-one]	101 to 300 nM	
CC(C)Oc1ccc(S(=O)(=O)N2CC(=C3CN(C(=O)[C@H](CO)c4ccccc4)C3)C2)nc1 [Compound 81, (S)-3-hydroxy-1-(1′-((5-isopropoxypyridin-2-yl)sulfonyl)-1′,4′-dihydro-2H,2′H-[3,3′-diazetidinylidene]-1(4H)-yl)-2-phenylpropan-1-one]	101 to 300 nM	
O=C1COc2ccc(S(=O)(=O)N3CC(=C4CN(C(=O)[C@H](CO)c5ccccc5)C4)C3)cc2N1 [Compound 40, (S)-6-((1′-(3-hydroxy-2-phenylpropionyl)-1′,4′-dihydro-2H,2′H-[3,3′-diazetidinylidene]-1(4H)-yl)sulfonyl)-2H-benzo[b][1,4]oxazine-3(4H)-one]	101 to 300 nM	
O=C([C@H](CO)c1ccccc1)N1CC(=C2CN(S(=O)(=O)c3ccc(OC(F)F)c(F)c3)C2)C1 [Compound 11]	101 to 300 nM	
O=C([C@H](CO)c1ccc(F)cc1)N1CC(=C2CN(S(=O)(=O)c3ccccn3)C2)C1 [Compound 54, (S)-2-(4-fluorophenyl)-3-hydroxy-1-(1′-(pyridin-2-ylsulfonyl)-1′,4′-dihydro-2H,2′H-[3,3′-diazetidinylidene]-1(4H)-yl)propan-1-one]	< 100 nM	
CC(C)(O)C(C(=O)N1CC(=C2CN(S(=O)(=O)c3ccc(OC(F)F)cc3)C2)C1)c1ccccc1 (centres unmarked) [Compound 17, 1-(1′-((4-(difluoromethoxy)phenyl)sulfonyl)-1′,4′-dihydro-2H,2′H-[3,3′-diazetidinylidene]-1(4H)-yl)-3-hydroxy-3-methyl-2-phenylbutan-1-one]	300 to 1000 nM	
CNCC(C(=O)N1CC(=C2CN(S(=O)(=O)c3ccc4c(c3)OCCO4)C2)C1)c1ccc(F)c(Cl)c1OC (centres unmarked) [Compound 28]	300 to 1000 nM	
O=C([C@H](CO)c1ccccc1)N1CC(=C2CN(S(=O)(=O)c3ccc(F)cc3)C2)C1 [Compound 10]	101 to 300 nM	
O=C([C@H](CO)c1ccccc1)N1CC(=C2CN(S(=O)(=O)c3cccc4cccnc34)C2)C1 [Compound 69, (S)-3-hydroxy-2-phenyl-1-(1′-(quinolin-8-ylsulfonyl)-1′,4′-dihydro-2H,2′H-[3,3′-diazetidinylidene]-1(4H)-yl)propan-1-one]	< 100 nM	
O=C(N1CC(=C2CN(S(=O)(=O)c3ccc(OC(F)F)cc3)C2)C1)C1(c2ccccc2)CCOC1 (centres unmarked) [Compound 37, (1′-((4-(difluoromethoxy)phenyl)sulfonyl)-1′,4′-dihydro-2H,2′H-[3,3′-diazetidinylidene]-1(4H)-yl)(3-phenyltetrahydrofuran-3-yl)methanone]	< 100 nM	
O=C([C@@H](CO)c1ccc(F)cc1)N1CC(=C2CN(S(=O)(=O)c3ccc4ncsc4c3)C2)C1 [Compound 51, (R)-1-(1′-(benzo[d]thiazol-6-ylsulfonyl)-1′,4′-dihydro-2H,2′H-[3,3′-diazetidinylidene]-1(4H)-yl)-2-(4-fluorophenyl)-3-hydroxypropan-1-one]	300 to 1000 nM	
O=C([C@H](CO)c1ccccc1)N1CC(=C2CN(S(=O)(=O)c3ccccn3)C2)C1 [Compound 4, (S)-3-hydroxy-2-phenyl-1-(1′-(pyridin-2-ylsulfonyl)-1′,4′-dihydro-2H,2′H-[3.3′-diazetidinylidene]-1(4H)-yl)propan-1-one]	101 to 300 nM	101 to 300 nM
